Data from patent US11427594B2, “Non brain penetrant A2A inhibitors and methods for use in the treatment of cancers” (iTeos Belgium SA, priority 2018, dated 2022).
Where two headings read alike, the source gives them in different places.

Tests used:
A2A receptor = molecular target: T1, A2A receptor (Homo sapiens, UniProt P29274); assay: Inhibition of cAMP production in HEK cells (LANCE Ultra cAMP, TR-FRET); assay type: cell-based; conditions: HEK-293 cells with stable transfection of A2A receptor
T1 construct: host or cells: HEK-293
Method: When the A2A receptor is activated, is induces the production of cAMP. The present assay thus aims at showing that cAMP production is inhibited in HEK cells in response to their exposure to the compounds of the invention. HEK-293 cells with a stable transfection of A2A receptor were bought from PerkinElmer® (#ES-011-C). Cells were cultured in EMEM medium (Lonza, #BE12-611F) supplemented with 10% FBS (Lonza, #DE14-801F) and 200 μg/mL of G418 (Tocris, #4131) at 37° C. and 5% CO2. Fresh media without the selection marker was added on the day immediately before the experiment to stop selection pressure. cAMP inhibition and antagonist IC50 determination were accessed using the LANCE® Ultra cAMP Kit from PerkinElmer® (#TRF0262) on white half area 96 well plates (PerkinElmer®, #6005560). The assays were conducted in two different stimulation buffers: • a) normal with 1×HBSS (Gibco®, #141750-95), 5 mM HEPES (Lonza, #BE17-737E), 0.1% BSA and 25 μM Rolipram and • b) HSA with 1×HBSS (Gibco®, #141750-95), 5 mM HEPES (Lonza, #BE17-737E), 2% Human Serum Albumin (Sigma-Aldrich®—A1653), 30 μM of EHNA (Tocris—#1261) and 100 μM Rolipram. Stimulation buffer b) mimics the human situation by increasing the amount of albumin present in the assay. Compounds of the present invention were diluted 100× in either of the buffers depending on the assay performed. A total of 1000 cells per well were pre-incubated for 10 minutes with the compounds of the present invention before adding the corresponded EC80 of A2A agonist (3 nM of NECA in normal buffer) or 5 μM of Adenosine (in HAS buffer) for a total reaction time of 30 minutes. The total volume of the reaction was 20 μl (10 μl of cells, 5 μl of antagonist and 5 μl of agonist). The reaction was finalized by adding 10 μl of 4×EU-cAMP tracer working solution and 10 μl of 4× ULight-anti-cAMP working solution. The TR-FRET signal was measured after 1 hour using a Spectramax Paradigm (Molecular Devices).

[1] = Permeability and efflux in Caco-2 cells; assay type: in vitro ADME; conditions: human, Caco-2 monolayer, bidirectional transport, pH 7.4
Method: The transport buffer (TB, pH 7.4) used in the study is Hank's Buffered Saline Solution (HBSS, Gibco, Cat #14025-076) with 10 mM HEPES at pH 7.4. Fetal bovine serum (FBS) (Corning, Cat #Corning-35-076-CV, or other vendors), Minimum Essential Media (MEM) (Gibco, Cat #41500-034) as well as its supplements are purchased from Invitrogen (Carlsbad, Calif., USA). Caco-2 cell line (Cat #HTB-37) is purchased from the ATCC (Rockville, Md., USA). The organic solvents used in the study are purchased from Sigma Aldrich (St. Louis, Mo., USA). For reference compounds (fenoterol, propranolol and digoxin) and test compounds, 0.4 mM intermediate solutions are prepared by diluting 10 mM or other appropriate concentrations of DMSO stock solutions with DMSO. 2 μM dosing solutions for reference compounds and test compounds are prepared by spiking the appropriate volume of intermediate solution to TB with and without 1 μM Zosuquidar. The final concentration of DMSO is no more than 1% (v/v). Caco-2 cells are grown in MEM supplemented with 2 mM L-glutamine, 10% FBS, 100 U/mL penicillin-G and 100 μg/mL streptomycin. The cells are incubated at 37° C., 5% CO2 and relatively saturated humidity. After reaching 80-90% confluency, the cells are gently detached with 0.05% trypsin-EDTA solution. Cells at passage 30-50 are seeded on the 96-well BD insert system (Cat #359274) at the density of 1×10^5 cells/cm2 and cultured for 21-28 days with medium changed every 4-5 days. TB and dosing solutions were pre-warmed to 37° C. before transport assay. The cell monolayer was washed twice with HBSS containing 10 mM HEPES. For A-B (apical to basolateral) directional transport assay, 75 μL dosing solution is added to the apical well. Fill each basolateral well with 250 μL TB. For B-A (basolateral to apical) directional transport assay, 250 μL of dosing solution is added to the basolateral well after filling each apical well with 75 μL TB. Test compound(s) and digoxin are tested at 2 μM in the presence or absence of 1 μM zosuquidar bidirectionally in duplicate. Atenolol and propranolol are tested at 2 μM in the absence of zosuquidar in A to B direction in duplicate. The plates are incubated for 120 minutes at 37° C. with 5% C02 and saturated humidity. The time zero samples are generated by mixing 50 μL initial dosing solution of test compound or reference compound with 100 μL TB and 250 μL quench solution (acetonitrile (ACN) or other appropriate solvent with internal standard(s), based on the bioanalytical method development). At 120 minutes, 150 μL of solution is collected from each A-B receiver well followed by addition of 250 μL quench solution to get A-B receiver sample. And for other samples (A-B donor, B-A donor and receiver), 50 μL of solution is collected from each corresponding well followed by addition of 250 μL quench solution and 100 μL TB. All samples are vortex-mixed and centrifuged at 3220 g for 20 minutes. Subsequently, supernatant is diluted with ultra pure water for LC-MS/MS analysis. The concentrations of test compound in all samples are determined by LC-MS/MS and expressed as peak area ratio of analyte to internal standard. The concentration of samples is expressed using the peak area ratio of Analyte to Internal Standard (Analyte/IS). The apparent permeability coefficient (Papp) is calculated using the following equation: Papp=VR/(Area*Time)*(CR/C0) wherein VR is the solution volume in the receiver chamber (0.075 mL on the apical side, 0.25 mL on the basolateral side); Area is the surface area for the transport, i.e. 0.0804 cm2 for the area of the monolayer; Time is incubation time, expressed in seconds, 2 h=2×3600 s; C0 is the initial concentration in the donor chamber; CR is the final concentrations in receiver chamber. The efflux ratio is calculated using the following equation: Efflux ratio=[…]) where Papp (A-B) and Papp (B-A) are the Papp values of compound in Apical to Basolateral and Basolateral to Apical directional transport, respectively.

[2] = HSA stimulation buffer, 5 μM Adenosine as agonist, 2.0% HSA, read-out: IC50 (nM) (5 μM Adenosine as agonist, 2.0% HSA)
[3] = normal stimulation buffer, 3 nM NECA as agonist, 0.1% BSA, read-out: IC50 (nM) (3 nM NECA as agonist, 0.1% BSA)

T1 sequence (P29274 whole entry): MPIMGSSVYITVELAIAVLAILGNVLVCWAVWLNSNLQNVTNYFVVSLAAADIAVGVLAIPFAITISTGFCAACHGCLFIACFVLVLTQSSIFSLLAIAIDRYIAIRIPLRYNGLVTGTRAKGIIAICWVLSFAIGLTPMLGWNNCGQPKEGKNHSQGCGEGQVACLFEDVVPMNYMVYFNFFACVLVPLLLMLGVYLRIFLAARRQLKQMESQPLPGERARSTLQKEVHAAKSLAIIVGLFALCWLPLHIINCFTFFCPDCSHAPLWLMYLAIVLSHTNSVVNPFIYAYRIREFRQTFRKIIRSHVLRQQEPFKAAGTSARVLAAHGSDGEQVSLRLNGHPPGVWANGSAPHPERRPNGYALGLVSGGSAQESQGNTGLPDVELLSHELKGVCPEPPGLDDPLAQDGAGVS

| SMILES | IC50 (A2A receptor; [2]) [nM] | IC50 (A2A receptor; [3]) [nM] | efflux ratio at 120 min, 2 μM [1] |
| --- | --- | --- | --- |
| CN(CCN1CCN(c2cc(OCC[S@+](C)[O-])c(F)cc2F)CC1)c1nc(N)n2nc(-c3ccco3)nc2n1 [Compound 1, (S)—N5-(2-(4-(2,4-difluoro-5-(2-(methylsulfinyl)ethoxy)phenyl)piperazin-1-yl)ethyl)-2-(furan-2-yl)-N5-methyl-[1,2,4]triazolo[1,5-a][1,3,5]triazine-5,7-diamine] | 33 | 0.4 | – |
| CN(CCN1CCN(c2cc(OCC[S@@+](C)[O-])c(F)cc2F)CC1)c1nc(N)n2nc(-c3ccco3)nc2n1 [Compound 2, (R)—N5-(2-(4-(2,4-difluoro-5-(2-(methylsulfinyl)ethoxy)phenyl)piperazin-1-yl)ethyl)-2-(furan-2-yl)-N5-methyl-[1,2,4]triazolo[1,5-a][1,3,5]triazine-5,7-diamine] | 28 | 0.6 | – |
| CNC(=O)c1cc(N2CCN(CCn3c(=O)n(C)c4c3nc(N)n3nc(-c5ccco5)nc43)CC2)c(F)cc1F [Compound 3, 5-(4-(2-(5-amino-8-(furan-2-yl)-1-methyl-2-oxo-1H-[1,2,4]triazolo[5,1-i]purin-3(2H)-yl)ethyl)piperazin-1-yl)-2,4-difluoro-N-methylbenzamide] | 176 | 0.1 | 53 |
| CNC(=O)c1cc(N2CCN(CCn3ncc4c3nc(N)n3nc(-c5ccco5)nc43)CC2)c(F)cc1F [Compound 4, 5-(4-(2-(5-amino-2-(furan-2-yl)-7H-pyrazolo[4,3-e][1,2,4]triazolo[1,5-c]pyrimidin-7-yl)ethyl)piperazin-1-yl)-2,4-difluoro-N-methylbenzamide] | 150 | 0.3 | 8 |
| CN(CCN1CCN(c2cc(OCCS(C)(=O)=O)c(F)cc2F)CC1)c1nc(N)n2nc(-c3ccco3)nc2n1 [Compound 5, N5-(2-(4-(2,4-difluoro-5-(2-(methylsulfonyl)ethoxy)phenyl)piperazin-1-yl)ethyl)-2-(furan-2-yl)-N5-methyl-[1,2,4]triazolo[1,5-a][1,3,5]triazine-5,7-diamine] | 41 | 0.6 | > 340 |
| CS(=O)(=O)CCOc1cc(N2CCN(CCNc3nc(N)n4nc(-c5ccco5)nc4n3)CC2)c(F)cc1F [Compound 6, N5-(2-(4-(2,4-difluoro-5-(2-(methylsulfonyl)ethoxy)phenyl)piperazin-1-yl)ethyl)-2-(furan-2-yl)-[1,2,4]triazolo[1,5-a][1,3,5]triazine-5,7-diamine] | 63 | 0.9 | – |
| Cn1c(=O)n(CCN2CCN(c3cc(OCC[S@+](C)[O-])c(F)cc3F)CC2)c2nc(N)n3nc(-c4ccco4)nc3c21 [Compound 7, (S)-5-amino-3-(2-(4-(2,4-difluoro-5-(2-(methylsulfinyl)ethoxy)phenyl)piperazin-1-yl)ethyl)-8-(furan-2-yl)-1-methyl-1H-[1,2,4]triazolo[5,1-i]purin-2-one] | 64 | 0.3 | > 500 |
| Cn1c(=O)n(CCN2CCN(c3cc(OCC[S@@+](C)[O-])c(F)cc3F)CC2)c2nc(N)n3nc(-c4ccco4)nc3c21 [Compound 8, (R)-5-amino-3-(2-(4-(2,4-difluoro-5-(2-(methylsulfinyl)ethoxy)-phenyl)piperazin-1-yl)ethyl)-8-(furan-2-yl)-1-methyl-1H-[1,2,4]triazolo[5,1-i]purin-2-one] | 70 | 0.3 | > 400 |
| Cn1c(=O)n(CCN2CCN(c3cc(OCCS(C)(=O)=O)c(F)cc3F)CC2)c2nc(N)n3nc(-c4ccco4)nc3c21 [Compound 9, 5-amino-3-(2-(4-(2,4-difluoro-5-(2-(methylsulfonyl)ethoxy)phenyl)piperazin-1-yl)ethyl)-8-(furan-2-yl)-1-methyl-1H-[1,2,4]triazolo[5,1-i]purin-2(3H)-one] | 104 | 0.5 | > 300 |
| C[S@+]([O-])CCOc1cc(N2CCN(CCNc3nc(N)n4nc(-c5ccco5)nc4n3)CC2)c(F)cc1F [Compound 10, (S)—N5-(2-(4-(2,4-difluoro-5-(2-(methylsulfinyl)ethoxy)phenyl)piperazin-1-yl)ethyl)-2-(furan-2-yl)-[1,2,4]triazolo[1,5-a][1,3,5]triazine-5,7-diamine] | 25 | 0.2 | > 900 |
| Nc1nc(NCCN2CCN(c3cc(N4CC[S+]([O-])CC4)c(F)cc3F)CC2)nc2nc(-c3ccco3)nn12 [Compound 15, 4-(5-(4-(2-((7-amino-2-(furan-2-yl)-[1,2,4]triazolo[1,5-a][1,3,5]triazin-5-yl)amino)ethyl)piperazin-1-yl)-2,4-difluorophenyl)thiomorpholine 1-oxide] | 81 | 1.7 | – |
| C[S@@+]([O-])c1cc(N2CCN(CCNc3nc(N)n4nc(-c5ccco5)nc4n3)CC2)c(F)cc1F [Compound 16, (R)—N5-(2-(4-(2,4-difluoro-5-(methylsulfinyl)phenyl)piperazin-1-yl)ethyl)-2-(furan-2-yl)-[1,2,4]triazolo[1,5-a][1,3,5]triazine-5,7-diamine] | 73 | 7.4 | – |
| C[S@+]([O-])c1cc(N2CCN(CCNc3nc(N)n4nc(-c5ccco5)nc4n3)CC2)c(F)cc1F [Compound 17, (S)—N5-(2-(4-(2,4-difluoro-5-(methylsulfinyl)phenyl)piperazin-1-yl)ethyl)-2-(furan-2-yl)-[1,2,4]triazolo[1,5-a][1,3,5]triazine-5,7-diamine] | 201 | 1.8 | – |
